Laboratory results from ChEMBL document CHEMBL5050844 (2019).

Key:
[1] = target: T1, E3 ubiquitin-protein ligase CBL-B (Homo sapiens, UniProt Q13191); test: Inhibition of N-terminal Avi-tagged human CBL-B (36 to 427 residues) incubated with 60 nM Src kinase for 1.5 hrs followed by incubation with fluorescently labeled UbcH5B-Ub for 1 hr and measured by TR-FRET assay; assay type: single protein
[2] = Induction of anti-CD3/CD28 antibodies-stimulated human T cell activation at 1 uM assessed fold increase in IL-2 secretion measured by ELISA assay; assay type: functional, T cell line
[3] = Induction of anti-CD3/CD28 antibodies-stimulated human T cell activation at 0.3 uM assessed fold increase in CD25 expression measured by ELISA assay; assay type: functional, T cell line
[4] = Induction of anti-CD3 antibodies-stimulated human T cell activation at 8 uM assessed fold increase in CD25 expression measured by ELISA assay; assay type: functional, T cell line; note: reference of the scale not given here
[5] = Induction of anti-CD3/CD28 antibodies-stimulated human CD4+ T cell activation at 10 uM assessed fold increase in CD69 expression measured by flow cytometry analysis; assay type: functional, T cell line
[6] = Induction of anti-CD3/CD28 antibodies-stimulated human CD4+ T cell activation at 1.11 uM assessed fold increase in cell proliferation measured by flow cytometry analysis; assay type: functional, T cell line
[7] = Induction of anti-CD3/CD28 antibodies-stimulated human CD8+ T cell activation at 1.11 uM assessed fold increase in CD69 expression measured by flow cytometry analysis; assay type: functional, T cell line
[8] = Induction of anti-CD3 antibodies-stimulated human CD8+ T cell activation at 10 uM assessed fold increase in CD69 expression measured by flow cytometry analysis; assay type: functional, T cell line; note: reference of the scale not given here
[9] = Induction of anti-CD3 antibodies-stimulated human CD8+ T cell activation at 1.11 uM assessed fold increase in CD69 expression measured by flow cytometry analysis; assay type: functional, T cell line; note: reference of the scale not given here
[10] = Induction of anti-CD3 antibodies-stimulated human T cell activation at 1.11 uM assessed fold increase in GM-CSF secretion measured by ELISA assay; assay type: functional, T cell line; note: reference of the scale not given here
[11] = Induction of anti-CD3 antibodies-stimulated human T cell activation at 1.11 uM assessed fold increase in TNF-alpha secretion measured by ELISA assay; assay type: functional, T cell line; note: reference of the scale not given here
[12] = Induction of anti-CD3 antibodies-stimulated human T cell activation at 10 uM assessed fold increase in IFN-gamma secretion measured by ELISA assay; assay type: functional, T cell line; note: reference of the scale not given here
[13] = Induction of anti-CD3 antibodies-stimulated human exhausted T cell activation assessed fold increase in IL-2 secretion measured by ELISA assay; assay type: functional, T cell line; note: reference of the scale not given here
[14] = Induction of anti-CD3 antibodies-stimulated human exhausted CD8+ T cell activation assessed fold increase in CTLA4 expression measured by flow cytometry analysis; assay type: functional, T cell line; note: reference of the scale not given here
[15] = Induction of anti-CD3/CD28 antibodies-stimulated human anergic T cell activation at 10 uM assessed fold increase in IFN-gamma secretion measured by ELISA assay; assay type: functional, T cell line
[16] = Induction of anti-CD3 antibodies-stimulated human CD4+ T cell activation in immunocompetent mouse assessed fold increase in CD25 expression at 90 mg/kg, ip administered twice a day; assay type: functional; note: reference of the scale not given here
[17] = Induction of anti-CD3 antibodies-stimulated human CD8+ T cell activation in immunocompetent mouse assessed fold increase in CD25 expression at 90 mg/kg, po administered twice a day; assay type: functional; note: reference of the scale not given here
[18] = Induction of activation of human CD56+ CD3- NK cells co-cultured with human K562 cells in 5:1 ratio and assessed as increase in IFN-gamma secretion at 10 uM measured by ELISA assay; assay type: functional, Natural killer cell
[19] = Induction of activation of human CD56+ CD3- NK cells co-cultured with human K562 cells in 5:1 ratio and assessed as increase in IFN-gamma secretion at 1 uM measured by ELISA assay; assay type: functional, Natural killer cell
[20] = Induction of activation of human CD56+ CD3- NK cells co-cultured with human K562 cells in 1:1 ratio and assessed as increase in IFN-gamma secretion at 1 uM measured by ELISA assay; assay type: functional, Natural killer cell
[21] = Induction of activation of human CD56+ CD3- NK cells co-cultured with human K562 cells in 5:1 ratio and assessed as increase in TNF-alpha secretion at 10 uM measured by ELISA assay; assay type: functional, Natural killer cell
[22] = Induction of activation of human CD56+ CD3- NK cells co-cultured with human K562 cells in 5:1 ratio and assessed as increase in TNF-alpha secretion at 1 uM measured by ELISA assay; assay type: functional, Natural killer cell
[23] = Induction of activation of human CD56+ CD3- NK cells co-cultured with human K562 cells in 1:1 ratio and assessed as increase in TNF-alpha secretion at 1 uM measured by ELISA assay; assay type: functional, Natural killer cell
[24] = Induction of activation of human CD56+ CD3- NK cells co-cultured with human K562 cells in 5:1 ratio and assessed as increase in MIP1beta secretion at 10 uM measured by ELISA assay; assay type: functional, Natural killer cell
[25] = Induction of activation of human CD56+ CD3- NK cells co-cultured with human K562 cells in 5:1 ratio and assessed as increase in MIP1beta secretion at 1 uM measured by ELISA assay; assay type: functional, Natural killer cell
[26] = Induction of activation of human CD56+ CD3- NK cells co-cultured with human K562 cells in 1:1 ratio and assessed as increase in MIP1beta secretion at 10 uM measured by ELISA assay; assay type: functional, Natural killer cell
[27] = Induction of activation of human CD56+ CD3- NK cells co-cultured with human K562 cells in 1:1 ratio and assessed as increase in MIP1beta secretion at 1 uM measured by ELISA assay; assay type: functional, Natural killer cell
[28] = Induction of activation of human CD56+ CD3- NK cells co-cultured with human K562 cells in 1:1 ratio and assessed as increase in IFN-gamma secretion at 0.625 uM measured by ELISA assay; assay type: functional, Natural killer cell
[29] = Induction of anti-CD3 antibodies-stimulated human CD8+ T cell activation in immunocompetent mouse assessed fold increase in CD25 expression at 90 mg/kg, ip administered thrice a day; assay type: functional; note: reference of the scale not given here
[30] = target: T1, E3 ubiquitin-protein ligase CBL-B; test: Binding affinity towards N-terminal biotinylated Avi-tagged human CBL-B (36 to 427 residues) measured by surface plasmon resonance assay
[31] = Induction of anti-CD3 antibodies-stimulated human CD4+ T cell activation in immunocompetent mouse assessed fold increase in CD25 expression at 90 mg/kg, po administered twice a day; assay type: functional; note: reference of the scale not given here
[32] = Induction of anti-CD3 antibodies-stimulated human CD4+ T cell activation in immunocompetent mouse assessed fold increase in CD25 expression at 135 mg/kg, po administered twice a day; assay type: functional; note: reference of the scale not given here
[33] = Induction of anti-CD3 antibodies-stimulated human CD4+ T cell activation in immunocompetent mouse assessed fold increase in CD25 expression at 180 mg/kg, po administered twice a day; assay type: functional; note: reference of the scale not given here
[34] = Induction of anti-CD3 antibodies-stimulated human CD8+ T cell activation in immunocompetent mouse assessed fold increase in CD25 expression at 135 mg/kg, po administered twice a day; assay type: functional; note: reference of the scale not given here
[35] = Induction of anti-CD3 antibodies-stimulated human CD8+ T cell activation in immunocompetent mouse assessed fold increase in CD25 expression at 180 mg/kg, po administered twice a day; assay type: functional; note: reference of the scale not given here

T1 sequence (Q13191 whole entry, the tested form may be a part): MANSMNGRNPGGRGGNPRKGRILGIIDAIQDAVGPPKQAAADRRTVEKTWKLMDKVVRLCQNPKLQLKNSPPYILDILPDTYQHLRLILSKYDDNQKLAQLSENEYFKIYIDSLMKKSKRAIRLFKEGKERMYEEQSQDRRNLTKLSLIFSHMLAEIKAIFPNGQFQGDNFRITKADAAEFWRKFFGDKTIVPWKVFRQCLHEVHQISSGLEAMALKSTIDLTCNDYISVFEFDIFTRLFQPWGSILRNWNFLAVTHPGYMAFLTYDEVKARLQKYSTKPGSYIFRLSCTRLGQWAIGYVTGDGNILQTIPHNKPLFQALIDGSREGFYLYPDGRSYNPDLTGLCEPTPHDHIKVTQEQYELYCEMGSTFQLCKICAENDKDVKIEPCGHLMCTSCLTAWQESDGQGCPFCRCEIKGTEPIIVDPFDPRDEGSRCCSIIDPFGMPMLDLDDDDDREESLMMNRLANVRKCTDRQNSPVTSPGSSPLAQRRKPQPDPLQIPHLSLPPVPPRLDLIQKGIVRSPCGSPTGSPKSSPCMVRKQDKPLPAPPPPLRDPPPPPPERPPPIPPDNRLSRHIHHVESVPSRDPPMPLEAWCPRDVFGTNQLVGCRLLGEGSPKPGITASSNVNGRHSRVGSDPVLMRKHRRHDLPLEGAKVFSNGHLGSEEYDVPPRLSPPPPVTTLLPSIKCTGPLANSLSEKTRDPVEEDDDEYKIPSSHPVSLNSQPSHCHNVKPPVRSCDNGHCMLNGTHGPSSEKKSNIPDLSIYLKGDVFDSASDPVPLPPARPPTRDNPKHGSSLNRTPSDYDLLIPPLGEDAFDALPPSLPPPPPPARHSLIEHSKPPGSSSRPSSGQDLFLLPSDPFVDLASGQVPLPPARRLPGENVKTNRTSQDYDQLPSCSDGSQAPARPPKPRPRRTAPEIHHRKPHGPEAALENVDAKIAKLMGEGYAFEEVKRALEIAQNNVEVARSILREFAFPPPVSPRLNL

SMILES	fold change (FC) [2]	fold change (FC) [3]	fold change (FC) [4]	fold change (FC) [5]	fold change (FC) [6]	fold change (FC) [7]	fold change (FC) [8]	fold change (FC) [9]	fold change (FC) [10]	fold change (FC) [11]	fold change (FC) [12]	fold change (FC) [13]	fold change (FC) [14]	fold change (FC) [15]	fold change (FC) [16]	fold change (FC) [18]	fold change (FC) [19]	fold change (FC) [20]	fold change (FC) [21]	fold change (FC) [28]	also measured
C[C@H](Cc1nncn1C)c1cccc(N2Cc3c(cccc3C(F)(F)F)C2=O)c1.Cl	2.51	1.31	>=1.001	1.201	<=2	<=1.2	<=1.2	<=1.2	<=1.5	<=1.5	<=2	<=2.5	1.41	<=2.5	1	>=5	1.01	1.01	<=1	1.01	IC50 [1]: < 0.1 µM; fold change (FC) [17]: <1; fold change (FC) [22]: <=1; fold change (FC) [23]: <=1; fold change (FC) [24]: 1.01; fold change (FC) [25]: <=1; fold change (FC) [26]: 1.01; fold change (FC) [27]: <=1
C[C@@H](Sc1nncn1C)c1cccc(NC(=O)c2cccc(C(F)(F)F)n2)c1	1.01	1.01	0.601	1.401	3.01	<=1.2	1.201	1.201	–	–	–	<=2.5	<=1.4	<=2.5	1.51	1.01	<=1	<=1	<=1	<=1	fold change (FC) [29]: 1; fold change (FC) [22]: <=1; fold change (FC) [23]: 1.01; fold change (FC) [24]: 1.01; fold change (FC) [25]: <=1; fold change (FC) [26]: 1.01; fold change (FC) [27]: 1.01
C[C@H](Sc1nncn1C)c1cccc(NC(=O)c2cccc(C(F)(F)F)n2)c1	2.51	1.31	>=1.001	<=1.2	<=2	<=1.2	<=1.2	<=1.2	1.51	1.51	<=2	<=2.5	<=1.4	2.51	1	2.01	1.01	1.01	2.01	<=1	fold change (FC) [29]: 1.51; fold change (FC) [22]: 1.01; fold change (FC) [23]: 1.01; fold change (FC) [24]: 1.01; fold change (FC) [25]: <=1; fold change (FC) [26]: 1.01; fold change (FC) [27]: 1.01
Cc1cc(C(=O)Nc2cccc(C3(Cc4nncn4C)COC3)c2)nc(C2CC2)n1	>=7.5	1.31	>=1.001	1.401	>4	1.201	1.401	1.201	2.01	1.51	>4	>3.01	<=1.4	>4.01	1	–	–	–	–	2.01	IC50 [1]: < 0.1 µM; Kd [30]: < 0.1 µM; fold change (FC) [31]: 1; fold change (FC) [32]: 1.51; fold change (FC) [33]: 1.51; fold change (FC) [29]: 1; fold change (FC) [17]: 1; fold change (FC) [34]: 1; fold change (FC) [35]: 1
